Results reported in ChEMBL document CHEMBL1201862, “PubChem BioAssay data set” (2004).
Calls of active or inactive are those of the source.

Assays:
[1] = viability loss in CEM21 cells – cell-based, CellTiter-Glo luminescence, cherry-picked, cytotoxicity control for viral fusion inhibitor project, dose response (AID 652042); format: functional;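 note: potency for signal decrease meaning cytotoxicity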
[2] = blockers of HIV-1 envelope-mediated cell-cell fusion – cherry-pick, dose response (AID 652057); format: functional, cell-based
[3] = target: Voltage-dependent T-type calcium channel subunit alpha-1H (Homo sapiens, UniProt O95180); format: functional;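 note: channel activity triggered by adding a high calcium stimulation buffer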
Voltage-dependent T-type calcium channel subunit alpha-1H, sequence (O95180 whole entry, the tested form may be a part): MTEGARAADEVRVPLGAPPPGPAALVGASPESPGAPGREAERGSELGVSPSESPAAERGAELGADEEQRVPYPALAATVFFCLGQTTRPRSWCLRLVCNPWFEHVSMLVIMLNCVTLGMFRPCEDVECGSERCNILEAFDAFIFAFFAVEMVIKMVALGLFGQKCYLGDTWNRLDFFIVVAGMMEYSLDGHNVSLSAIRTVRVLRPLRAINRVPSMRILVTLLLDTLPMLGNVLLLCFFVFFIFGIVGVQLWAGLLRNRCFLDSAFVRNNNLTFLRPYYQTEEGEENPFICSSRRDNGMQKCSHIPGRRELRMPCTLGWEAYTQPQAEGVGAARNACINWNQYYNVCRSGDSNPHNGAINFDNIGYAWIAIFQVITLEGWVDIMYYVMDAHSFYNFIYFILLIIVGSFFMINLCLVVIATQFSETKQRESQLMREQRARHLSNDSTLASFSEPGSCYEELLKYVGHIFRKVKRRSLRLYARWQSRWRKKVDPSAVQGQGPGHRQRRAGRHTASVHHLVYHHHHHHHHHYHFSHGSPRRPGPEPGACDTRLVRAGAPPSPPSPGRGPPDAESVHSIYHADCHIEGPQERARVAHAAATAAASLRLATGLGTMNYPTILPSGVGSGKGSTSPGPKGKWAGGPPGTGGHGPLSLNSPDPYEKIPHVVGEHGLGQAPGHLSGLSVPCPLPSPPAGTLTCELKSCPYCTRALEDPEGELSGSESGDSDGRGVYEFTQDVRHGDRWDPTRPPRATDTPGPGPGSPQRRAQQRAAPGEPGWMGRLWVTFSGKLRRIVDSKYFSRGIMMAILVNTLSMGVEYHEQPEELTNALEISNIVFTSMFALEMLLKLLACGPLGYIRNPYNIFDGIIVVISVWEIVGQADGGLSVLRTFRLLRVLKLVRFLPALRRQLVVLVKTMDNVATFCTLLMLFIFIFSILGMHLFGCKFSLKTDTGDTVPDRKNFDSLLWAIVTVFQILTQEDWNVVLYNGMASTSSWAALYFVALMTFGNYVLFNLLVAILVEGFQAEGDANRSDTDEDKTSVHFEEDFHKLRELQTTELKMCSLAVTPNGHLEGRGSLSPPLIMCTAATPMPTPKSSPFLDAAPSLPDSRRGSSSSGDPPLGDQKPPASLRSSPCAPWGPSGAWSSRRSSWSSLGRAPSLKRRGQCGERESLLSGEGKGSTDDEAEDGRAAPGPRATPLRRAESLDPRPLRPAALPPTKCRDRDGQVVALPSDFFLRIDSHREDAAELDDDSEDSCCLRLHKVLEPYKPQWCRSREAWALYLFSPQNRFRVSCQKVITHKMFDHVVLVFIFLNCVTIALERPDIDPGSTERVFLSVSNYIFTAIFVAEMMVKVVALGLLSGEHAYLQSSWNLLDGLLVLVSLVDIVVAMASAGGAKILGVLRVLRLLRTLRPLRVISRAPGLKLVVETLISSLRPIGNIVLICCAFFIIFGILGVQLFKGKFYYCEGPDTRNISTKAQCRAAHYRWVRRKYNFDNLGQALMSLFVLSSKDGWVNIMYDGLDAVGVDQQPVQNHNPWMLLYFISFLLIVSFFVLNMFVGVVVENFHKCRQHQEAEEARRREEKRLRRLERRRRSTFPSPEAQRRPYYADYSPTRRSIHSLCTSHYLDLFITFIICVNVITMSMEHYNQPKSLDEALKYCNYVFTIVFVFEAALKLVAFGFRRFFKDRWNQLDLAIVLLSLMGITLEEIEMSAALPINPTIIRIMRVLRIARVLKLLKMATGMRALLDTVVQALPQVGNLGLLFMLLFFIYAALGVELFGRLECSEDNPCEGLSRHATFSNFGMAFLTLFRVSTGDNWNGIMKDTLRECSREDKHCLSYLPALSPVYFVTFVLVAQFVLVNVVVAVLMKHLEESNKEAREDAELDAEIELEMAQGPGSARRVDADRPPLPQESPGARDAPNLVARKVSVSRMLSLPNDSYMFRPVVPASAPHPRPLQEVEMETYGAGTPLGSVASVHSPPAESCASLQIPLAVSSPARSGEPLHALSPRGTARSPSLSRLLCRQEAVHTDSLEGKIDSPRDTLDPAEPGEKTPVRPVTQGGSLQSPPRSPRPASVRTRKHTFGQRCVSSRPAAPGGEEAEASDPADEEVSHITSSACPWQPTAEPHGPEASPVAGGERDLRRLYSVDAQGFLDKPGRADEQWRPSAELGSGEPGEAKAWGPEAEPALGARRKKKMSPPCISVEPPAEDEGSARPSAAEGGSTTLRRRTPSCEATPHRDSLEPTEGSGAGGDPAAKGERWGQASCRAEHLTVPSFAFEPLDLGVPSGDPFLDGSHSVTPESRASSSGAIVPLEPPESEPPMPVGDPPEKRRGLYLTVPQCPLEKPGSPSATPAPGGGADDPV

[4] = HIV-1 AD8 envelope cell-cell fusion blockers – cherry-pick, dose response (AID 652062); format: functional, cell-based;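 note: luciferase signal from cell-cell fusion driven by HIV-1 clade B AD8 Env; potency is for inhibitors of fusion seen as a drop in luminescence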
[5] = test system: HEK293; assay: cells; format: functional, cell-based; details: Homo sapiens
[6] = test system: HEK293; assay: NOD2 signaling inhibitors in MDP-stimulated cells, cell-based, uHTS, luminescence (AID 2001); format: functional; details: Homo sapiens
[7] = test system: HEK293; assay: cells; format: functional, cell-based; details: Homo sapiens; remark: listed apart in the source
[8] = test system: HEK293; assay: inhibition of NOD1-driven NF-kB reporter – cell-based, luminescence, uHTS, primary screen (AID 1578); format: functional; details: Homo sapiens
[9] = target: T1, Ubiquitin-conjugating enzyme E2 N (Homo sapiens, UniProt P61088); format: functional;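 note: Dose-response confirmation in a TR-FRET assay detecting UBC13-driven polyubiquitin chain formation, inhibition measured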
T1 sequence (P61088 whole entry): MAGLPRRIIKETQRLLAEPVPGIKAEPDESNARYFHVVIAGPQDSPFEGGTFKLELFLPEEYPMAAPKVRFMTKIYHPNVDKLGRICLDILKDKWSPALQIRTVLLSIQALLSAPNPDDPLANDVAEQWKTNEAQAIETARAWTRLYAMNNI

[10] = target: T2, Aminopeptidase N (Plasmodium falciparum FcB1/Columbia, UniProt O96935); assay: malaria alanyl aminopeptidase activity blockers – biochemical, fluorogenic H-Leu-NHMec substrate, 1536-well (AID 1445); parameters: species or system Plasmodium falciparum 3D7, 3D7
T2 sequence (O96935 whole entry): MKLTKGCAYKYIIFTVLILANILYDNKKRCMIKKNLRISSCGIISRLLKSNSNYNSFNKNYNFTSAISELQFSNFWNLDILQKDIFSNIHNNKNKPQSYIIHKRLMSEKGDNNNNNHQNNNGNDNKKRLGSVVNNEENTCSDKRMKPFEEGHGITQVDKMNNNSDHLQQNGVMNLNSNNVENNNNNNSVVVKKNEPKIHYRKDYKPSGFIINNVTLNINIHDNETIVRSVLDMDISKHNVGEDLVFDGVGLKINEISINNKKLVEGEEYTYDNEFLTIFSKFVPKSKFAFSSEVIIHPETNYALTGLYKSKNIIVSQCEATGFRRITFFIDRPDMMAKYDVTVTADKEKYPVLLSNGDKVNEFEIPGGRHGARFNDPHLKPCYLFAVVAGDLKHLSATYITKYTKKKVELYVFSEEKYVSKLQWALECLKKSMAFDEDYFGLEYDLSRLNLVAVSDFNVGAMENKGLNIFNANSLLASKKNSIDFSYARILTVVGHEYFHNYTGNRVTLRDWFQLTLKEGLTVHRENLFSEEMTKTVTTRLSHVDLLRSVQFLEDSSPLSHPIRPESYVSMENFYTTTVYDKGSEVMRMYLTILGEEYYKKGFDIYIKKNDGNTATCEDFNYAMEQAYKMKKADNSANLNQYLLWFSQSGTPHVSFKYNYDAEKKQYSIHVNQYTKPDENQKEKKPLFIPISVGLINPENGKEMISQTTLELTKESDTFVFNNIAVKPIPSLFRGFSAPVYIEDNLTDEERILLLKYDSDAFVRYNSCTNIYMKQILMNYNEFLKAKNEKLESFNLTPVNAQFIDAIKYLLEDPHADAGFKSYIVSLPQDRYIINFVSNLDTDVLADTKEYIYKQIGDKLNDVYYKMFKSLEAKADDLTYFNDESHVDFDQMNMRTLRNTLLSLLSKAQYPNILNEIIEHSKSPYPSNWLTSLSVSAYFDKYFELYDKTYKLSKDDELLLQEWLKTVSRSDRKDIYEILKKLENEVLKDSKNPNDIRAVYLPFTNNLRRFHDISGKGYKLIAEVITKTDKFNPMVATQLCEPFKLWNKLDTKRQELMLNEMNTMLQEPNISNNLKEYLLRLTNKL

[11] = target: T3, Protein RecA (Mycobacterium tuberculosis, UniProt P9WHJ3); assay: Fluorescence Cell-Free Homogeneous Dose Retest to Identify Inhibitors of RecA-Intein Splicing Activity. [Related pubchem assays (depositor defined):AID2097, AID2223, AID489010, AID492950]; format: functional
T3 sequence (P9WHJ3 whole entry): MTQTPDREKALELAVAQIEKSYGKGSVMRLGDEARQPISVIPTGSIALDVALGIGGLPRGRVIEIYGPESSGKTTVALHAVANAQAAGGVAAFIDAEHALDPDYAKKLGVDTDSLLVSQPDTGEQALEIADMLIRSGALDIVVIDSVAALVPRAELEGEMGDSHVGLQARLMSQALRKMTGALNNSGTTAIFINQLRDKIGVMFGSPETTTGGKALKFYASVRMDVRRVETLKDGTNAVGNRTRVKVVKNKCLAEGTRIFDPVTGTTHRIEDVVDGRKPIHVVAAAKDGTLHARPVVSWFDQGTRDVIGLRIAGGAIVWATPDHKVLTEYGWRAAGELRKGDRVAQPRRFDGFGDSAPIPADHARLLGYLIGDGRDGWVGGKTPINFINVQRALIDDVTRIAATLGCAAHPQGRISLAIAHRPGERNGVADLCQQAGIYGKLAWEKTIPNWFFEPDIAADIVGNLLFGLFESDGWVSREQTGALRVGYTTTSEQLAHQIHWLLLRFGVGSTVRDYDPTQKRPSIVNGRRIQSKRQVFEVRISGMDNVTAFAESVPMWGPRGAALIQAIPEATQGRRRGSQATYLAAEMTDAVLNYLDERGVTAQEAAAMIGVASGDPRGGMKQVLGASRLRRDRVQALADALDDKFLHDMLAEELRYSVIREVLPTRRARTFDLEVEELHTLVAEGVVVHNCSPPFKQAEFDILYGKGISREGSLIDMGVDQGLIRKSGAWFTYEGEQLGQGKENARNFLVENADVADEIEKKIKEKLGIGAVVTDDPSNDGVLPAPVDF

[12] = target: T4, Replicative DNA helicase DnaB (Mycobacterium tuberculosis, UniProt P9WMR3); assay: DnaB intein splicing inhibitors, dose response, biochemical, cell-free fluorescence (AID 449749); format: functional
T4 sequence (P9WMR3 whole entry): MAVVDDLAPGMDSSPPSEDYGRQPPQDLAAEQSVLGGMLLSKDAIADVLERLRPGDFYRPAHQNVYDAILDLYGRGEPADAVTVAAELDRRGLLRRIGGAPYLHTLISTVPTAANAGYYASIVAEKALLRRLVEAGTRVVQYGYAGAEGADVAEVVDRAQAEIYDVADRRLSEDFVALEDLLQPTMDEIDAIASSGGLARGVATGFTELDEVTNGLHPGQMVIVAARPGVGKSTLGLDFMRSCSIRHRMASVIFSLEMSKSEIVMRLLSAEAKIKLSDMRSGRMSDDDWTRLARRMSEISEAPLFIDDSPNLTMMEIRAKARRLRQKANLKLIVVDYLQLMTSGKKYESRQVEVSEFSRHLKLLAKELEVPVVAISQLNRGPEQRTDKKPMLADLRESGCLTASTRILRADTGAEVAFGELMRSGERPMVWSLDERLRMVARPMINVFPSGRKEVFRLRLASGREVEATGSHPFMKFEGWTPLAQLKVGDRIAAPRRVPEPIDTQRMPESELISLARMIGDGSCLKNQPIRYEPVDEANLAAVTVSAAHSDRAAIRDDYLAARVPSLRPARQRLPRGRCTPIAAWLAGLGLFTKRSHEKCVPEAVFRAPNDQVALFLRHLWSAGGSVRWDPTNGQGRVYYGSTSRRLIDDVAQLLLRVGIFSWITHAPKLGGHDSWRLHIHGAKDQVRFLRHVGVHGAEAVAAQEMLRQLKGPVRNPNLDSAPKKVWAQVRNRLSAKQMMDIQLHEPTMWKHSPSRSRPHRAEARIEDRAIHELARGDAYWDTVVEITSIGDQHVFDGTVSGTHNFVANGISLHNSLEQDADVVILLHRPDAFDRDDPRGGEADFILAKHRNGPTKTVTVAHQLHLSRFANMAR

[13] = target: T5, Alkaline phosphatase, tissue-nonspecific isozyme (Homo sapiens, UniProt P05186); assay: potency against alkaline phosphatase TNAP – biochemical, luminescent, dose response, SAR follow-up (AID 1056)
T5 sequence (P05186 whole entry): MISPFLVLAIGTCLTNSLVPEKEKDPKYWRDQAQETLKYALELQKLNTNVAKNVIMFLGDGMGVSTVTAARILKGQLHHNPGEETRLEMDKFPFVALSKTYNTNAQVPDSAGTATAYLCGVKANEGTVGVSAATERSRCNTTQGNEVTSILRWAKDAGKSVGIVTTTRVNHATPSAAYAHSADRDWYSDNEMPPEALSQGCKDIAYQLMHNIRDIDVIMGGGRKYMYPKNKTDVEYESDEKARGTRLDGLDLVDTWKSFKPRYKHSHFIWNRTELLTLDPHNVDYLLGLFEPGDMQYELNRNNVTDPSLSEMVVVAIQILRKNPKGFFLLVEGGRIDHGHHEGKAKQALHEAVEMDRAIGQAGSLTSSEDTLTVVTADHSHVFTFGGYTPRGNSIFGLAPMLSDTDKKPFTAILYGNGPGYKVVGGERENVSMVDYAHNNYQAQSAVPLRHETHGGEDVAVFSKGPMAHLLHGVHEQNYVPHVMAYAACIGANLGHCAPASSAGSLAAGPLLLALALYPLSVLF

[14] = target: Glyceraldehyde-3-phosphate dehydrogenase (Homo sapiens, UniProt P04406)
Glyceraldehyde-3-phosphate dehydrogenase, sequence (P04406 whole entry): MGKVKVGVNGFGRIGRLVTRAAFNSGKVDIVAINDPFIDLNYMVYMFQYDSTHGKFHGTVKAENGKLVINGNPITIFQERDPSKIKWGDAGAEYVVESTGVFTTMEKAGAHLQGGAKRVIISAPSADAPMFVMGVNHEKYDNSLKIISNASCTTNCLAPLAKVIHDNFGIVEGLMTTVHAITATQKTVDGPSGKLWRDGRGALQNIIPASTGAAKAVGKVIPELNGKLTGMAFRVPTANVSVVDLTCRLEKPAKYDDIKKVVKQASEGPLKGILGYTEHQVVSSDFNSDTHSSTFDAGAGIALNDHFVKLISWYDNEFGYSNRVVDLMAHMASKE

[15] = target: Cytochrome P450 3A4 (Homo sapiens, UniProt P08684); details: Potency;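 note: confirmatory qHTS run detecting inhibitors and substrates of CYP3A4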
Cytochrome P450 3A4, sequence (P08684 whole entry): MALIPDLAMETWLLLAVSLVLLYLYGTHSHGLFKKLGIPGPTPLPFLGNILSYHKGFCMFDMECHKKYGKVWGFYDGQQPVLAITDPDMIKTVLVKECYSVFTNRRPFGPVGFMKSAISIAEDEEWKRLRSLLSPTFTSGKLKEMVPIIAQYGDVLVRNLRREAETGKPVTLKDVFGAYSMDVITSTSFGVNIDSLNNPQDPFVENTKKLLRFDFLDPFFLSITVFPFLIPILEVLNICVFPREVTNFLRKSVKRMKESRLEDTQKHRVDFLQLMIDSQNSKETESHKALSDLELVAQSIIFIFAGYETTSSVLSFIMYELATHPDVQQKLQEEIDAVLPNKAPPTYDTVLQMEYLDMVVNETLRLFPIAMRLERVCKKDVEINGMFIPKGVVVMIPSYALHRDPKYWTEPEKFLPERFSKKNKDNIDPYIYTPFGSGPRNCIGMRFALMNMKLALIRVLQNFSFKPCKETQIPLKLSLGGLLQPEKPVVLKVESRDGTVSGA

[16] = cells; format: functional
[17] = THP-1 cell cytotoxicity, dose response, cytotoxicity control for non-replicating M. tuberculosis project (AID 489025); format: functional
[18] = HepG2 cell cytotoxicity, dose response, cytotoxicity control for non-replicating M. tuberculosis project (AID 489018); format: functional; details: Mycobacterium tuberculosis

## Cc1cccc(N2CCN(C(=O)CCCSc3nc4ccccc4[nH]3)CC2)c1C
[1]
  AC50: 50.8 µM (active)
[2]
  AC50: 46.1 µM (active)
[3]
  EC50: 5.23 µM (active)
[4]
  AC50: 12.3 µM (active)

## CN(C(=O)C(C)(C)C)c1ccc(OCC(=O)N2CCc3ccccc3C2)cc1
[5]
  IC50: > 20 µM (inactive)
[6]
  IC50: 18.1 µM (inactive)
[7]
  IC50: 12.9 µM (active)
[8]
  EC50: 4.6 µM (active)

## COc1ccc(C[C@H]2CN3C(=NC[C@@H]3Cc3ccc(O)cc3)N2C[C@H](C)NC(=O)c2ccc(C)c(Br)c2)cc1
[9]
  IC50: > 20 µM (inactive)

## COc1cc(Br)c(C2C(C#N)=C(N)Oc3[nH]nc(-c4cccnc4)c32)cc1OC (centres undefined)
[10]
  IC50: 44.6 µM (active)
[11]
  EC50: 8.6 µM (active)
[12]
  AC50: 35 µM (active)

## COc1ccc(S(=O)(=O)Nc2cccnc2)cc1OC
[13]
  IC50: > 100 µM (inactive)
[14]
  IC50: > 100 µM (not active)

## CCCN1[C@@H]2C[C@@H](O)CC[C@@H]2C[C@H]1C(=O)OC
[15]
  AC50: 25.1 µM (inconclusive)

## COc1ccc(-c2csc(NC(=O)C3=NN(c4ccccc4)C(=O)CC3)n2)cc1
[5]
  IC50: 17.5 µM (active)
[6]
  IC50: 5.67 µM (inactive)
[7]
  IC50: 5.51 µM (active)
[8]
  EC50: 15.7 µM (active)

## C=CCc1ccc(OCC(O)COc2ccc(CC=C)cc2OC)c(OC)c1
[3]
  EC50: 6.12 µM (active)

## COc1cc(/C=C/C(=O)c2cccs2)cc(OC)c1OC
[15]
  AC50: 3.16 µM (inconclusive)

## c1ccc(-c2cc3c(nc2-c2ccccc2)CCNC3)cc1
[15]
  AC50: 5.01 µM (inconclusive)

## Cc1ccc(-n2ncc(C(=O)NCc3ccc4c(c3)OCO4)c2NC(=O)c2ccco2)cc1C
[3]
  EC50: 1.89 µM (active)

## COc1ccc(-c2csc(NC(C)c3nc4cc(C(=O)NCCCO)ccc4n3Cc3ccc(C)cc3)n2)cc1 (centres undefined)
[9]
  IC50: > 20 µM (inactive)

## CC(/C=C/c1ccco1)=N\NC(=O)c1cccc(Cl)c1
[16]
  IC50: 6.09 µM (active)
[17]
  CC50: > 40 µM (active)
[18]
  CC50: > 20 µM (active)

## Cc1ccc(-c2cc(C(=O)O)[nH]n2)cc1
[13]
  IC50: 8.71 µM (active)
[14]
  IC50: > 100 µM (not active)
